Assay results published in US6630174B2, “Methods and compositions for retarding and eradicating infestation in trees and tree derived products” (Nisus Corporation, priority 1990, dated 2003).

Experiments:
[1] = tested on: broad spectrum of infestation; assay: Boron concentration effective against infestation; assay type: in vivo; settings: concentration in the wood
dry wood termites = settings: in vivo; cited from earlier work

Row | Structure (SMILES) | concentration generally effective for preventing or eradicating a broad spectrum of infestation [1] [ppm] | boron concentration efficacious against dry wood termites (dry wood termites) [parts per million]
1 | O.O.O.O.O=BOB1OB(OB=O)OB2OB([O-])OB([O-])OB(O1)O2.[Na+].[Na+] [DOT, disodium octaborate tetrahydrate] | 2400 | –
2 | [B] [boron] | 500 | 100
